Assay results from ChEMBL document CHEMBL1133035, “Cysteine chloromethyl and diazomethyl ketone derivatives with potent anti-leukemic activity” (Bioorg Med Chem Lett, 2000).
Where a SMILES comes first, the peptide text is derived from it. The star is where a group is joined. Farnesyl = CC(C)=CCC/C(C)=C/CC/C(C)=C/C*; Boc = CC(C)(C)OC(=O)*; CHN2 = [N-]=[N+]=C*; CH2Cl = ClC*

Columns and labels:
[1] = test system: MOLT-3; assay: Anti-leukemic activity against Molt-3 (T-lineage ALL) human acute lymphoblastic leukemia (ALL) cell line; type: functional, cell-based
[2] = test system: NALM-6; assay: Anti-leukemic activity against Nalm-6 (B-lineage ALL) human acute lymphoblastic leukemia (ALL) cell line; type: functional, cell-based

SMILES | IC50 [1] [µM] | IC50 [2] [µM]
CC(=O)N[C@@H](CSC/C=C(\C)CCC=C(C)C)C(=O)CCl | > 100 | > 100
CC(=O)N[C@@H](CSCC=C(C)C)C(=O)C=[N+]=[N-] | > 100 | > 100
CC(C)=CCC/C(C)=C/CC/C(C)=C/CSCCC(=O)CCl | 35.5 | 40.7
CCCCCCCCCCCCSC[C@H](NC(C)=O)C(=O)C=[N+]=[N-] | 22.9 | 15.4
CC(C)=CCC/C(C)=C/CC/C(C)=C/CSC[C@H](NC(=O)OC(C)(C)C)C(=O)C=[N+]=[N-] | 50.1 | 49.8
CC(=O)N[C@@H](CSC/C=C(\C)CCC=C(C)C)C(=O)C=[N+]=[N-] | > 100 | > 100
CC(C)=CCC/C(C)=C/CC/C(C)=C/CSC[C@H](NC(=O)CNC(=O)OC(C)(C)C)C(=O)CCl (Boc-Gly-Cys(Farnesyl)-CH2Cl) | 17.5 | 12.9
CC(C)=CCC/C(C)=C/CC/C(C)=C/CSC[C@H](NC(=O)CNC(=O)OC(C)(C)C)C(=O)C=[N+]=[N-] (Boc-Gly-Cys(Farnesyl)-CHN2) | 84.5 | 51.3
CC(=O)N[C@@H](CSC/C=C(\C)CC/C=C(\C)CCC=C(C)C)C(=O)C=[N+]=[N-] | 32.2 | 30.3
CC(C)=CCC/C(C)=C/CC/C(C)=C/CSCC(=O)CCl | > 100 | 84.3

Stronger by IC50 [1], values ahead:

IC50 [1] [µM] | IC50 [2] [µM] | SMILES
15.5 | 15.1 | CCCCCCCCCCCCSC[C@H](NC(=O)OC(C)(C)C)C(=O)CCl
12.5 | 17.7 | CCCCCCCCCCCCSC[C@H](N)C(=O)CCl
7.9 | 12.6 | CC(=O)N[C@@H](CSCC=C(C)C)C(=O)CCl
7.7 | 10.7 | CC(C)=CCC/C(C)=C/CC/C(C)=C/CSC[C@H](NC(=O)OC(C)(C)C)C(=O)CCl
2.3 | 2 | CCCCCCCCCCCCSC[C@H](NC(C)=O)C(=O)CCl
1.4 | 3 | CC(=O)N[C@@H](CSC/C=C(\C)CC/C=C(\C)CCC=C(C)C)C(=O)CCl
